System: neonatal dermal fibroblast-like cells
Test: Screening small-molecules for myogenic induction (TnT+ cells)
Type: cell-based, mouse
Conditions: for induction of myogenic cells, factor added individually to FR: basic medium with 20 μM F and R, bFGF 50 ng/ml or AA 50 μg/ml
Protocol: The next day the original medium was replaced with a screening medium containing small-molecule cocktails: KnockOut DMEM (Thermo Fisher Scientific), 10% knockout serum replacement (Thermo Fisher Scientific), 10% FBS (Hyclone, Inc.), 2 mM GlutaMAX (Thermo Fisher Scientific), 1% nonessential amino acids (Thermo Fisher Scientific), 1% penicillin-streptomycin (Thermo Fisher Scientific) and 20 ng/ml bFGF (Stemgent) containing the various small molecules, including valproic acid ([…]), tranylcypromine (T, 5 μM), forskolin (F, 10 μM), and 5-aza-2'deoxycytidine (5-Aza) (5-aza, 5 μM). The medium was changed once every 2-3 days. After optimizing the cocktail of small molecules and concentrations, the screening medium was replaced with Fb medium for further screening of additional candidates that may improve myogenic efficiency, including ascorbic acid (50 μg/ml, Sigma), BMP4 (20 ng/ml, Stemgent), Insulin (10 μg/ml, Stemgent), IGF-1 (50 ng/ml, R&D Systems), PDGF (50 ng/ml, R&D Systems), and bFGF (50 ng/ml, Stemgent Inc.). For cell immunostaining, cells were fixed in 4% paraformaldehyde for 15 minutes and permeabilized with 0.5% Triton-X 100 in PBS for 15 minutes. Cells were then blocked with 5% donkey serum for 1 hour and incubated overnight at 4° C. with primary antibodies (diluted in 5% donkey serum), including TnT (mouse mAb, DSHB), Myh1E (MF 20, mouse mAb, DSHB), Myh2 (SC-71, mouse mAb, DSHB), Myh3 (F1.652, mouse mAb, DSHB), Myh4 (BF-F3, mouse mAb, DSHB), Myh7 (BA-D5, mouse mAb, DSHB), Myh8 (Rabbit pAb, Thermo Fisher Scientific, PA5-72846), […]7) (dystrophin, mouse mAb, DSHB), MyoD (mouse mAb, DSHB), MyoG (mouse mAb, DSHB), Pax7 (mouse mAb, DSHB), Sox 10 (goat pAb, R&D Systems, AF2864), Ki 67 (rabbit mAb, Abcam, ab16667), FSP1 (rabbit mAb, Sigma, 07-2274), CD 90.2-FITC (rat mAb, Thermo Fisher Scientific, 11-0903-81), P75 (rabbit pAb, Abcam, ab8874) and PDGFR-α (rat mAb, Thermo Fisher Scientific, 13-1401-82). Then appropriate Alexa Fluor 488- or Alexa Fluor 546- or Alexa Fluor 647-conjugated secondary antibodies (Thermo Fisher Scientific) were used for 1 hour at room temperature.

Row | Compound | induction of myogenic cells, factor added individually to FR | further results
1 | basic fibroblast growth factor [bFGF] | significantly enhanced | –
2 | Cc1cccc(-c2[nH]ncc2-c2ccc3ncccc3n2)n1 [R, RepSox] | – | efficiency of CiMC expansion from dermal cells with single agent (F or R alone): almost negligible
3 | Nc1ncn([C@H]2C[C@H](O)[C@@H](CO)O2)c(=O)n1 [5-Aza, 5-aza-2′deoxycytidine] | – | induction of TnT+ cells (5-Aza treatment of dermal cells): did not show any significant induction
4 | O=C1O[C@H]([C@@H](O)CO)C(O)=C1O [AA, ascorbic acid] | significantly enhanced | –

Source: patent US20230285353A1, “A CHEMICAL COCKTAIL DRIVING EXPANSION OF MYOGENIC STEM CELLS” (The Regents of the University of California, priority 2020, published 2023)
